Patent publication US5834499A, “5-HT3 receptor agonist, novel thiazole derivative and intermediate thereof” (Yamanouchi Pharmaceutical Co., Ltd., priority 1994, dated 1998)

Tests used:
5-HT3 receptor [1] = target: T1, 5-HT3 receptor (Cavia porcellus, UniProt O70212); assay: contractile effects on the isolated colon from a guinea pig (5-HT3 receptor agonistic activity); set-up: species or system guinea pig (male Hartley); conditions: for Emax: guinea pig, read-out: Max. response; for Relative potency: relative EC50 value, based on that of 5-HT as standard value (1)
T1 construct: Distal colons were excised from male Hartley guinea pigs; from tissue; host or cells: distal colon strips of male Hartley guinea pigs
T1 sequence (O70212 24-490 limits assumed): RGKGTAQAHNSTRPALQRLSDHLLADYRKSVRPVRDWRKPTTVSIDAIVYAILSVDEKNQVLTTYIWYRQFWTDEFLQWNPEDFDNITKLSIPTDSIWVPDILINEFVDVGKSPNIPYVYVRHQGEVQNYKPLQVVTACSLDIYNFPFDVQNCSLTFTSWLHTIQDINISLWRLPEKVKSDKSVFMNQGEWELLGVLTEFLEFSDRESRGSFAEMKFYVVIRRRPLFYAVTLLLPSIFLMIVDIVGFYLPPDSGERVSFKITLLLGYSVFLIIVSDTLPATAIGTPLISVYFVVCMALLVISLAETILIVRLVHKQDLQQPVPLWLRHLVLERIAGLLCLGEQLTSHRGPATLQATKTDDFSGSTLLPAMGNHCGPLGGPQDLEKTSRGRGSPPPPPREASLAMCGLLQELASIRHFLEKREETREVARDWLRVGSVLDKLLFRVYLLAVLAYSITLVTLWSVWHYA
From the text: Distal colons were excised from male Hartley guinea pigs (500 to 800 g) to prepare strips of about 20 mm.
Each strip was longitudinally suspended in an organ bath, and contractile response was isometrically measured.

5-HT3 receptor [2] = assay: Facilitation of defecation in rat; assay type: in vivo, rat (male Wistar); conditions: 10 mg/kg s.c.; number of feces excreted for four hours after administration
Description: In the male Wistar rat (200-300 g), facilitating effects on defecation by stimulation of 5-HT3 receptor [Miyata et al., J. Pharmacol. Exp. Ther., 261, 297 (1992)] were studied. The compound (10 mg/kg) was subcutaneously administered to the rat and the number of feces excreted for four hours after the administration was counted.

| Compound | Emax (5-HT3 receptor [1]) [%] | Relative potency (5-HT3 receptor [1]) | facilitating effect on defecation (5-HT3 receptor [2]) |
| --- | --- | --- | --- |
| NCCc1nc2c(s1)Cc1ccccc1-2.O=C(O)/C=C/C(=O)O [Ex. 9, 2-(2-aminoethyl)-8H-indeno[1,2-d]thiazole fumarate] | 75 | 1/2 | – |
| O=C(O)/C=C/C(=O)O.c1ccc(-c2csc(C3CCCNC3)n2)cc1 (centres unmarked) [Ex. 46, 4-Phenyl-2-(3-piperidyl)thiazole fumarate] | 52 | 1/2 | – |
| c1ccc2c(c1)Cc1sc(C3CCNC3)nc1-2 (centres unmarked) [Ex. 52, 2-(3-pyrrolidinyl)-8H-indeno[1,2-d]thiazole] | 77 | – | exhibited facilitating effect on defecation |

Further lines, with some results ahead:

| Emax (5-HT3 receptor [1]) [%] | Relative potency (5-HT3 receptor [1]) | Compound | facilitating effect on defecation (5-HT3 receptor [2]) |
| --- | --- | --- | --- |
| 57 | – | c1ccc2c(c1)Cc1sc([C@@H]3C[C@@H]4CCCN4C3)nc1-2 (relative stereo) [Ex. 66, (3R*,5S*)-3-(8H-indeno[1,2-d]thiazol-2-yl)-1-azabicyclo[3.3.0]octane hemifumarate] | – |
| 51 | – | c1ccc2c(c1)Cc1sc(CCN3CCCCC3)nc1-2 [Ex. 71, 2-(2-piperidinoethyl)-8H-indeno[1,2-d]thiazole] | – |
| 45 | 1/3 | c1csc(-c2csc(CC3CCCCN3)n2)c1 (centres unmarked) [Ex. 59, 2-[[4-(2-Thienyl)-2-thiazolyl]methyl]piperidine hemifumarate] | – |
| 23 | – | NC1(CCc2nc3c(s2)Cc2ccccc2-3)CCCCC1 [Ex. 70, 2-[2-(1-aminocyclohexyl)ethyl]-8H-indeno[1,2-d]thiazole] | – |
